Test results from patent US9670175B2, “Protected succinates for enhancing mitochondrial ATP-production” (NEUROVIVE PHARMACEUTICALS AB, priority 2012, dated 2017).

What was measured:
[1] = tested on: rotenone-inhibited intact human platelets; assay: mitochondrial complex II screening assay (high-resolution respirometry); type: cell-based; conditions: for Mitochondrial Respiration: Complex II-dependent respiration, rotenone-inhibited intact human platelets
From the text: FIG. 1 is a schematic figure of mitochondrial complex II screening assay. […] In the assay, mitochondrial function in intact cells is repressed with the respiratory complex I inhibitor rotenone. Drug candidates are compared with endogenous substrates (succinate) before and after permeabilization of the plasma membrane to evaluate bioenergetic enhancement or inhibition.
(§1) Human platelets were isolated from venous blood collected in K2EDTA vials through two centrifugation steps in room temperature. After 10 min at 300 g, platelet rich plasma was collected and transferred to new vials. 5 min at 4600 g yielded a platelet pellet that was resuspended in an appropriate amount of plasma. The cell concentration was determined with a Swelab Alfa Hematocytometer (Boule Medical AB, Stockholm, Sweden).
Measurement of mitochondrial respiration was performed in a high-resolution oxygraph (Oxygraph—2 k, Oroboros Instruments, Innsbruck, Austria) at a constant temperature of 37° C. Platelets were suspended in the 2 mL glass chamber at a concentration of 200-400*10^6 cells/mL.
(1) Initial screen, complex II-effect, was performed with isolated intact platelets in a buffer containing 110 mM sucrose, HEPES 20 mM, taurine 20 mM, K-lactobionate 60 mM, MgCl2 3 mM, KH2PO4 10 mM, EGTA 0.5 mM, BSA 1 g/l, pH 7.1. After baseline respiration with endogenous substrates was established, complex I was inhibited with Rotenone […]. Drug candidates dissolved in DMSO were titrated in steps to 100 μM, 500 μM and 5 mM final concentration. Subsequently, cell membranes were permeabilised with digitonin (1 mg/1*10^6 pit). After stabilized respiration, Succinate 10 mM was added and after the respiration stabilized the experiment was terminated by addition of the complex III inhibitor Antimycin at final concentration 1 μg/mL and the residual respiration measured. […] In the assay, mitochondrial function in intact cells is repressed with the respiratory complex I inhibitor rotenone. Drug candidates are compared with endogenous substrates before and after permeabilization of the plasma membrane to evaluate bioenergetic enhancement or inhibition.
(1) The ideal compound stimulates respiration in rotenone-inhibited intact cells at low concentration in the CII-screening protocol without inhibitory effect on succinate stimulated respiration after permeabilization. After inhibition of respiration with mitochondrial toxins, respiration should be halted. Please refer to FIG. 1. and the listing below.

intact human platelets = assay: mitochondrial convergent respiration screening assay (FCCP-uncoupled, high-resolution respirometry); type: cell-based; conditions: control disodium succinate, FIGS. 3A-3C
From the text: FIG. 2 is a schematic figure of mitochondrial convergent respiration screening assay. It describes the protocol for evaluating the potency of novel cell-permeable mitochondrial substrates. In the assay, mitochondrial activity is stimulated by uncoupling the mitochondria with the protonophore FCCP. Drug candidates are titrated to obtain the level of maximum convergent (complex I- and complex II-derived) respiration. After rotenone addition, complex II-dependent stimulation is obtained. The complex III-inhibitor antimycin is added to evaluate non mitochondrial oxygen consumption. The reference substance is succinate.
as §1, with “Sweden). […]” for “Sweden).”
(2) In the second protocol, convergent respiration, the same respiration buffer and cell concentrations as described above was used. […] The experiment was terminated by addition of 2 μM Rotenone and 1 μg/mL Antimycin and residual respiration measured. […]

[2] = previously known related compounds
[3] = titrated to 100 μM, 500 μM and 5 mM

Row | Compound | Mitochondrial Respiration [1, 3] | other results
1 | CCOC(=O)CCC(=O)OCC [Diethyl succinate, reference compound] |  | activity in the assays exemplified [1]: inactive; Mitochondrial Respiration [1, 2]: −
2 | COC(=O)CCC(=O)OC [Dimethyl succinate, reference compound] |  | activity in the assays exemplified [1]: inactive; Mitochondrial Respiration [1, 2]: −
3 | COC(=O)CCC(=O)OCOC(=O)C(C)(C)C [Example 2, Succinic Acid 2,2-dimethyl-propionyloxymethyl Ester Methyl Ester] | ++ | 
4 | COC(=O)CCC(=O)OCOC(C)=O [Example 4, Succinic Acid Acetoxymethyl Ester Methyl Ester] | ++ | 
5 | CC(=O)OC(C)OC(=O)CCC(=O)OC(C)OC(C)=O (stereo not drawn) [Example 5, Succinic Acid bis-(1-acetoxy-ethyl)ester] | +++ (stimulation gradually increases and reaches maximum at ≦0.5 mM) | respiration (oxygen flux per unit) with stepwise titration compared to control (intact human platelets): increase in respiration
6 | COC(=O)CCC(=O)OC(C)OC(C)=O (stereo not drawn) [Example 6, Succinic Acid 1-Acetoxy-Ethyl Ester Methyl Ester] | + | 
7 | CCC(OC(C)=O)OC(=O)CCC(=O)OC(CC)OC(C)=O (stereo not drawn) [Example 7, Succinic Acid bis-(1-acetoxy-propyl)ester] | ++ | 
8 | CCC(=O)OC(C)OC(=O)CCC(=O)OC(C)OC(=O)CC (stereo not drawn) [Example 8, Succinic Acid bis-(1-propionyloxy-ethyl)ester] | ++ | 
9 | O=C1CCC(=O)OCOCOCO1 [Example 9, 1,3,5,7-Tetraoxa-cycloundecane-8,11-dione] | + | 
10 | CCN(CC)C(=O)COC(=O)CCC(=O)OCOC(C)=O [Example 10, Succinic Acid Acetoxymethyl Ester Diethylcarbamoylmethyl Ester] | ++ | 
11 | CCOC(=O)OC(C)OC(=O)CCC(=O)OCC(=O)N(CC)CC (stereo not drawn) [Example 11, Succinic Acid Diethylcarbamoylmethyl Ester 1-Ethoxycarbonyloxy-Ethyl Ester] | (+) | 
12 | CCN(CC)C(=O)COC(=O)CCC(=O)OC(C)OC(C)=O (stereo not drawn) [Example 12, Succinic Acid 1-Acetoxy-Ethyl Ester Diethylcarbamoylmethyl Ester] | + | 
13 | CC(=O)OCOC(=O)CCC(=O)OC(C)OC(C)=O (stereo not drawn) [Example 13, Succinic Acid 1-Acetoxy-Ethyl Ester Acetoxymethyl Ester] | +++ (stimulation gradually increases and reaches maximum at ≦0.5 mM) | respiration (oxygen flux per unit) with stepwise titration compared to control (intact human platelets): increase in respiration
14 | CC1(C)OC(=O)C(OC(=O)CCC(=O)OC2OC(C)(C)OC2=O)O1 (stereo not drawn) [Example 14, Succinic Acid bis-(2,2-dimethyl-5-oxo-[1,3]dioxolan-4-yl)ester] | +++ (stimulation gradually increases and reaches maximum at ≦0.5 mM) | 
15 | COC(=O)C(OC)OC(=O)CCC(=O)OC(OC)C(=O)OC (stereo not drawn) [Example 15, Succinic Acid bis-(methoxy-methoxycarbonyl-methyl)ester] | (+) | 
16 | CCOC(=O)OC(C)OC(=O)CCC(=O)OC(C)OC(C)=O (stereo not drawn) [Example 16, Succinic Acid 1-acetoxy-ethyl Ester 1-ethoxycarbonyloxy-ethyl Ester] | ++ | 
17 | CC(=O)OC(C)OC(=O)CCC(=O)OCOC(=O)CCC(=O)OC(C)OC(C)=O (stereo not drawn) [Example 17, Succinic Acid 3-(1-acetoxy-ethoxycarbonyl)-propionyloxymethyl Ester 1-acetoxy-ethyl Ester] | +++ (stimulation gradually increases and reaches maximum at ≦0.5 mM) | 
18 | CC(=O)OCOC(=O)CCC(=O)OCOC(=O)CCC(=O)OCOC(C)=O [Example 18, Succinic Acid 3-acetoxymethoxycarbonyl-propionyloxymethyl Ester Acetoxymethyl Ester] | +++ (stimulation gradually increases and reaches maximum at ≦0.5 mM) | 
19 | COC(=O)CCC(=O)O [Monomethyl succinate, reference compound] |  | activity in the assays exemplified [1]: inactive; Mitochondrial Respiration [1, 2]: −
